This is an account of results in paper PMC8169668, “Discovery of a cooperative mode of inhibiting RIPK1 kinase” (Cell Discovery, 2021).

What all share (type): cell-based
The target of test [1] is T1, RIPK1 (Mus musculus, UniProt Q60855).
T1 construct: endogenous RIPK1 (MEFs)
T1 sequence (Q60855 1-656): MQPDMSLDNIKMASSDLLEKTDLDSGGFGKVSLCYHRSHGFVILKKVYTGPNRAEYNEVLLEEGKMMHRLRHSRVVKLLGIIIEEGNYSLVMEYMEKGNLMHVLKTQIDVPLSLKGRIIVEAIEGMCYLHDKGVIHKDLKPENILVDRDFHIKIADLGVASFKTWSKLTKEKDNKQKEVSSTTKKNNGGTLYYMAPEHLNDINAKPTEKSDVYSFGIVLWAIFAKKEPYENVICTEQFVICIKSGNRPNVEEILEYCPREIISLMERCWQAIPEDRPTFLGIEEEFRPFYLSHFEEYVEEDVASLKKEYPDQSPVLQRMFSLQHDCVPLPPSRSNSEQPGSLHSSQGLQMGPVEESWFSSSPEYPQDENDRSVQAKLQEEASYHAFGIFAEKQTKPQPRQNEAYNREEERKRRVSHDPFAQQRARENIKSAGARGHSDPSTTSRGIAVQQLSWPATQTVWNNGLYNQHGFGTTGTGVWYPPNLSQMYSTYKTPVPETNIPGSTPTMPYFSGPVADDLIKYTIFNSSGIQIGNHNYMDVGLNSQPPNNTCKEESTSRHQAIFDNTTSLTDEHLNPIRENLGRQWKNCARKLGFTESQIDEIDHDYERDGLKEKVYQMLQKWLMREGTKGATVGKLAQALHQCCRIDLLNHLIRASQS
Kind of test: CETSA in MEFs; p-S166 blot of mRIPK1-FKBP in L929 cells.

For test [2], the target named is T2, RIPK1 (Homo sapiens, UniProt Q13546, L159V/D180S).
T2 construct: residues 1–330, Flag-tagged, in 293T cells
T2 sequence (Q13546 1-330 L159V/D180S): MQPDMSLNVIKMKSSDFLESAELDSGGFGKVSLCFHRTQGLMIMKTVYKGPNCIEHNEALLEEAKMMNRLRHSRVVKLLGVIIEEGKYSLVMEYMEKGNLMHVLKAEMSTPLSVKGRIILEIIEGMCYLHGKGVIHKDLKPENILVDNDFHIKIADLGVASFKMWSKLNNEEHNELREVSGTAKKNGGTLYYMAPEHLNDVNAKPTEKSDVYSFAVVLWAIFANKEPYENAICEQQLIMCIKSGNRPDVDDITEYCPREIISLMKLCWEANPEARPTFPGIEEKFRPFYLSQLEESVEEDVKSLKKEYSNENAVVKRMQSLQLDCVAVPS
Briefly: p-S166 autophosphorylation blot, dose response.

Test [3] has as its target T3, RIPK1 (Homo sapiens, UniProt Q13546, S161A).
T3 construct: HA-tagged hRIPK1 S161A reconstituted in RIPK1-deficient Jurkat cells
T3 sequence (Q13546 1-671 S161A): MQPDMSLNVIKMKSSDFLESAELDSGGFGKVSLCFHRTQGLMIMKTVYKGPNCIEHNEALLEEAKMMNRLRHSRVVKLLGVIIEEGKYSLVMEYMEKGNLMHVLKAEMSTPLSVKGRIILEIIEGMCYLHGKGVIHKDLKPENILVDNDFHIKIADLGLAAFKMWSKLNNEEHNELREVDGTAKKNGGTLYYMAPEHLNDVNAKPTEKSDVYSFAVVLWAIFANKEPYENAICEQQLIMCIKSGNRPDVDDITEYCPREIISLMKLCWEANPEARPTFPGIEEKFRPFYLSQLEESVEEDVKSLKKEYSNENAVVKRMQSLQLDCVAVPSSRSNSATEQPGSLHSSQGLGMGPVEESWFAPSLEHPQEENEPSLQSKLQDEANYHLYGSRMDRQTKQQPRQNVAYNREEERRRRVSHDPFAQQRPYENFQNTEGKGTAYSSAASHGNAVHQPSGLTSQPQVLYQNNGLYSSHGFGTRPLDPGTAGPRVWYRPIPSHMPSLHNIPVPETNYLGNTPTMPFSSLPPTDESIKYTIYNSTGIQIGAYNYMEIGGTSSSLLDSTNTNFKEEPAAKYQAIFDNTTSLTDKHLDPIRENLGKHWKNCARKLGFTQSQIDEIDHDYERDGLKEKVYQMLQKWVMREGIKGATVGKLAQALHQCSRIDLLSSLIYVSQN
Kind of test: CETSA; p-S166 autophosphorylation blot.

The structures appear in SMILES notation.

`Cc1ccc(C2CC(=O)NC(SCC(=O)Nc3nccs3)=C2C#N)cc1` (stereo not drawn) [Nec-34]: the “CETSA in MEFs; p-S166 blot of mRIPK1-FKBP in L929 cells” value in test [1] is recorded as “Nec-34 is able to bind endogenous RIPK1 in situ to increase its thermo-resistance”. For the same molecule, the “p-S166 autophosphorylation blot, dose response” value in test [2] is reported as “Nec-34 was more potent in inhibiting L159V/D180S hRIPK1 than WT-hRIPK1”. Besides, in test [3], the “CETSA; p-S166 autophosphorylation blot” value is “Nec-34 stabilized reconstituted S161A mutant RIPK1 as well as WT-RIPK1 in the soluble fraction under elevated temperatures”.
